These results are taken from ChEMBL document CHEMBL3232969, “Structure-based design and synthesis of tricyclic IAP (Inhibitors of Apoptosis Proteins) inhibitors” (Bioorg Med Chem Lett, 2014).

Molecules are shown by their SMILES.

The target in series [1] is Baculoviral IAP repeat-containing protein 2 (Homo sapiens, UniProt Q13490).
Description: Inhibition of cIAP1 BIR3 domain (unknown origin) by fluorescence polarization assay
A short description of series [2]: Aqueous solubility of the compound.
The nature of series [3]: Lipophilicity, log D of the compound. To be noted: octanol/water.
A short description of series [4]: (§1) Percentage unbound in human plasma. As to conditions: Fu.
Series [5] in a line: (§2) Intrinsic clearance in human liver microsomes. To be noted: liver microsomes, CLH.
Series [6] has as its target E3 ubiquitin-protein ligase XIAP (Homo sapiens, UniProt P98170). The series can be described thus: Inhibition of XIAP BIR3 domain (unknown origin) by fluorescence polarization assay. For orientation: Polarisation of emitted light reports the rotation of a fluorescent probe.
The next series deals with MDA-MB-231. The experiment in a line: Growth inhibition of human MDA-MB-231 cells. It counts as functional.
The next series relates to Plasma. The description is as §1.
In a further series the test system is Liver microsome. The description is as §2. To be noted: microsomes.
A short description of series [7]: Inhibition of Cytochrome P450 (unknown origin). It counts as ADME. To be noted: human.
Series [8] in a line: Intrinsic clearance in rat microsomes. It counts as ADME, Microsome.
Series [9] addresses Voltage-gated inwardly rectifying potassium channel KCNH2 (Homo sapiens, UniProt Q12809). The series can be described thus: Inhibition of human ERG.

As usually defined, the IC50 is the concentration at which inhibition is half-maximal. A low value points to higher potency. For orientation: solubility means the dissolved amount per volume that the medium holds. In general, logD refers to the decadic logarithm of the distribution of all forms, ionised or not, between an organic phase and buffer at a given pH. High values mean higher lipophilicity, low ones lower lipophilicity. One may read the fraction unbound as the share of the substance not bound to proteins or other matrix. One may read the microsomal CLint as the capacity of the preparation to metabolise the compound, expressed as a volume cleared per time. Low values mean greater metabolic stability, high ones faster metabolism. `CN[C@@H](C)C(=O)N[C@H](C(=O)N1CC[C@H]2CCN(CCc3ccccc3)C[C@H]21)C1CCCCC1`: the IC50 in series [1] was 27 nM. The same compound came in with a solubility in [2] of over 1000 µM. The compound also registered a logD in [3] (logD) of 2.5. The compound further showed a fraction unbound in series [4] of 0.057. Moreover, the microsomal CLint in series [5] came out at 32 µL/min/mg.

As a reminder, the GI50 is the concentration giving 50% growth inhibition. Lower therefore signals greater sensitivity of the cells. `CN[C@@H](C)C(=O)N[C@H]1CCC[C@H]2C[C@H]3CCN(CCc4ccc(C(F)(F)F)cc4)C[C@H]3N2C1=O` displayed a solubility in series [2] of over 1000 µM. Further, in series [3] (logD), the pH-dependent lipophilicity (logD) was 2.1. Also, in series [6], the IC50 is over 10000 nM. Besides, the GI50 in the series on MDA-MB-231 (Homo sapiens, MDA-MB-231) worked out at 970 nM. Moreover, in series [4], the fraction unbound amounted to 0.18. The same compound registered a microsomal CLint in series [5] of 5.2 µL/min/mg.

Turning to `CN[C@@H](C)C(=O)N[C@H]1CCC[C@H]2SC(C)(C)C(C(=O)Nc3cc(C)nn3-c3ccccc3)N2C1=O` (stereo partly drawn), the IC50 in series [1] stood at 50 nM.

With `CN[C@@H](C)C(=O)N[C@H]1CCC[C@H]2C[C@H]3CCN(CCc4ccc(F)cc4)C[C@H]3N2C1=O`, half-maximal inhibition in series [1] (IC50) was put at 21 nM. In series [2], this compound yielded a solubility of over 1000 µM. Further, the logD in series [3] (logD) turned out to be 1.3. This compound displayed a GI50 in the series on MDA-MB-231 (Homo sapiens, MDA-MB-231) of 120 nM. The same compound yielded a free fraction (fraction unbound) in series [4] of 0.48. The compound also came in with a microsomal CLint in series [5] of under 4 µL/min/mg.

`CN[C@@H](C)C(=O)N[C@H]1CCC[C@H]2C[C@H]3CCN(Cc4ccccc4)C[C@H]3N2C1=O` had a solubility in series [2] of over 1000 µM. In series [3] (logD), the logD turned out to be 0.8. The compound further registered an IC50 in [6] of over 10000 nM. Moreover, the GI50 in the series with MDA-MB-231 (Homo sapiens, MDA-MB-231) is over 11000 nM. Besides, the fraction unbound in series [4] was determined as 0.52. For the same compound, in series [5], the microsomal CLint is 7.1 µL/min/mg.

`CN[C@@H](C)C(=O)N[C@H]1CCC[C@H]2C[C@H]3CCN(CCC4CCCCC4)C[C@H]3N2C1=O` showed a solubility in series [2] of over 1000 µM. The compound also registered a logD in [3] (logD) of 1.5. Further, the IC50 in [6] is over 10000 nM. In the series on MDA-MB-231 (Homo sapiens, MDA-MB-231), this compound came in with a GI50 of 1300 nM. In series [4], this compound yielded a free fraction (fraction unbound) of 0.49. Also, the microsomal CLint in series [5] is 5 µL/min/mg.

Take `CN[C@@H](C)C(=O)N[C@H]1CCC[C@H]2C[C@H]3CCN(C(c4ccccc4)c4ccccc4)C[C@H]3N2C1=O`: the solubility in series [2] is over 1000 µM. Moreover, the logD in series [3] (logD) came to 2.7. The half-maximal inhibitory concentration (IC50) in series [6] was over 10000 nM. This compound also came in with a fraction unbound in series [4] of 0.049. In series [5], this compound had a microsomal CLint of 14 µL/min/mg.

`CCCCN1CC[C@@H]2C[C@@H]3CCC[C@H](NC(=O)[C@H](C)NC)C(=O)N3[C@@H]2C1`: the IC50 in [1] was 1200 nM; in [6], over 10000 nM.

As to `CN[C@@H](C)C(=O)N[C@H]1CCC[C@H]2C[C@H]3CCN(C(=O)c4ccccc4)C[C@H]3N2C1=O`, the IC50 in [1] and in [6] was over 10000 nM throughout. Besides, the solubility in series [2] was over 1000 µM. The logD in series [3] (logD) was -0.4. The same compound returned a fraction unbound in [4] of over 0.7. In series [5], this compound registered a microsomal CLint of 7.05 µL/min/mg.

As for `CN[C@@H](C)C(=O)N[C@H]1CCC[C@H]2C[C@H]3CCN(S(=O)(=O)Cc4ccccc4)C[C@H]3N2C1=O`, the IC50 in series [1] is 2800 nM. In [2], the solubility was over 1000 µM. This compound also returned a logD in series [3] (logD) of 0.4. In the series on MDA-MB-231 (Homo sapiens, MDA-MB-231), this compound yielded a GI50 of over 11000 nM. This compound also registered a fraction unbound in series [4] of 0.4. In [5], this compound registered an intrinsic metabolic clearance (microsomal CLint) of 25 µL/min/mg.

Take `CN[C@@H](C)C(=O)N[C@H]1CCC[C@H]2C[C@H]3CCN(S(=O)(=O)c4ccccc4)C[C@H]3N2C1=O`: in series [1], the IC50 is 8000 nM. Also, the solubility in [2] was over 1000 µM. In addition, the logD in [3] (logD) amounted to 0.7. Also, in series [4], the fraction unbound is 0.2. Also, the microsomal CLint in series [5] was 7.1 µL/min/mg.

With `CN[C@@H](C)C(=O)N[C@H]1CCC[C@H]2C[C@H]3CCN(CC(C)c4ccccc4)C[C@H]3N2C1=O` (mixture of isomers), the midpoint of inhibition in series [1], the IC50, lay at 180 nM. For the same compound, the logD in series [3] (logD) amounted to 1.4. This compound also showed a GI50 in the series with MDA-MB-231 (Homo sapiens, MDA-MB-231) of 2500 nM. This compound had a fraction unbound in [4] of 0.18. In addition, the microsomal CLint in series [5] was under 4 µL/min/mg.

In [3], `CN[C@@H](C)C(=O)N[C@H]1CCC[C@H]2C[C@H]3CCN(C(=O)C(OCC#CC#CCOC(C(=O)N4CC[C@@H]5C[C@@H]6CCC[C@H](NC(=O)[C@H](C)NC)C(=O)N6[C@@H]5C4)c4ccccc4)c4ccccc4)C[C@H]3N2C1=O` (single isomer, unassigned; isomer 2) showed a logD of 1.9. Further, in the series with MDA-MB-231, the GI50 turned out to be 200 nM. In the series on Plasma, the Fu worked out at 10%.

As for `C#CCOCC(C(=O)N1CC[C@@H]2C[C@@H]3CCC[C@H](NC(=O)[C@H](C)NC)C(=O)N3[C@@H]2C1)c1ccccc1` (stereo in doubt; 42), the solubility in series [2] is over 1000 µM. In series [3] (logD), the pH-dependent lipophilicity (logD) was 0.6. In the series on MDA-MB-231, this compound came in with a GI50 of 3700 nM. In series [4], the fraction unbound came to 0.14. This compound also yielded a CLH in the series on Liver microsome of 23 µL/min/mg.

`C#CCOCC(C(=O)N1CC[C@@H]2C[C@@H]3CCC[C@H](NC(=O)[C@H](C)NC)C(=O)N3[C@@H]2C1)c1ccccc1` (stereo in doubt; 43): in series [3], the logD is on record as 0.8. The compound also yielded a GI50 with MDA-MB-231 of over 11000 nM. The compound also yielded a Fu in the series with Plasma of 17%. Moreover, the CLH in the series on Liver microsome was found to be 8.5 µL/min/mg.

`CN[C@@H](C)C(=O)N[C@H]1CCC[C@H]2C[C@H]3CCN(C(=O)C(OCC#CC#CCOC(C(=O)N4CC[C@@H]5C[C@@H]6CCC[C@H](NC(=O)[C@H](C)NC)C(=O)N6[C@@H]5C4)c4ccccc4)c4ccccc4)C[C@H]3N2C1=O` (stereo in doubt; 53): the INH is over 20 µM in [7] and over 33 µM in series [9]. For the same compound, the solubility in series [2] is over 1000 µM. Moreover, the logD in series [3] (logD) was 1.8. This compound also had a microsomal CLint in series [8] of 7 µL/min/mg. This compound also yielded a 50% growth inhibitory concentration (GI50) in the series on MDA-MB-231 of 10 nM. Also, the fraction unbound in series [4] came out at 0.051.
